From patent publication US20250188032A1, “NITROGEN-CONTAINING HETEROCYCLIC COMPOUNDS AND USES THEREOF” (BNH RESEARCH CO., LTD., priority 2022, published 2025)

Tests used:
293T cells = assay: Cytotoxicity test (CCK-8 cell viability) in 293T cells; assay type: cell-based, human
[1] = system: C57BL/6J mice barrel cortex (layer 4); assay: Synaptic function test: TC EPSC potency and GABA/AMPA ratio in barrel cortex (layer 4); assay type: in vivo
Description: Eight weeks old male C57BL/6J mice were anesthetized with isoflurane during surgery. The mice were then be placed in a stereotaxic frame (RWD Life Science, China). The parietal and the frontal bones were exposed by a sagittal incision of the scalp at the midline from the level of the eyes to the occipital protuberance. A small burr hole was drilled after exposing the skull. The injection cannula was placed at the following coordinates: (Mouse: Bregma −3.30, lateral −1.50, and ventral 0.7 mm). Sterile saline solution (+/−a compound of the present disclosure) was perfused at a constant flow rate of 0.5 μL/h through the injection cannula using a mini-Os pump (DURECT Corporation ALZET Osmotic Pumps, CA). Implantation was done in layer 4 of the barrel cortex ipsilateral. To estimate extent of the diffusion of the injected compound in layer 4 barrel cortex during pump injection, methylene blue was first injected to stain the diffusion area. On average methylene blue diffused to […] away from the injection site (the total area of the barrel cortex region is about 1500 μm). Based on this analysis, the present inventors recorded from barrel cortex area.
2 mg of BnH12001 was dissolved in 800 ul of DMSO and prepared as a stock solution. For oral administration, BnH12001 DMSO stock:PEG400:Saline was mixed in a ratio of 5:55:40 and 200 μl/animal was administered. For the control group, a vehicle in which DMSO:PEG400:Saline was mixed in a 5:55:40 ratio was administered at 200 ul/animal. In the single drug administration test, the compound was administered once a day for about 11 to 12 days at a dose of 1 mg/kg. Dose response test was performed by administering the compound once a day for about 11 to 12 days at doses of 0.03, 0.1, 0.3, 1, 3, and 10 mg/kg. 5 mice were used for the compound administration group and the control group, respectively.
For TC or hippocampus slice preparation. 9 to 10 weeks-old male C57BL/6J mice were anesthetized with isoflurane. Then, the brain was rapidly cooled via transcardial perfusion with ice-cold sucrose-artificial cerebrospinal fluid (aCSF). The brain was removed and placed in ice-cold sucrose aCSF. Paracoronal slices were prepared at an angle of 50° relative to the midline on a ramp at an angle of 10°. Then, slices were incubated in aCSF at 35° C. for 30 minutes to recover. Slices were then incubated in aCSF at room temperature (23 to 25° C.) for 1 to 4 hours before being placed in the recording chamber for experiments. The standard aCSF contains saturated with 95% O2/5% CO2. The brain of the mouse was removed and cut into 400 μm at a 50° angle (mouse at a 55° angle) to attach the cut portion to the vibratome disc to be the bottom. Brain slice was incubated in 35° C. in aCSF solution for 30 minutes, or at RT in aCSF solution for 1 hour.
All electrophysiological experiments were conducted at 27 to 29° C. For electrophysiological experiments, electrodes with […] resistance were used and stimuli were applied to the ventral posteromedial nucleus (VPM) using a concentric bipolar electrode (FHC, Bowdoin, ME). The somatosensory cortex was identified by the presence of barrels under 4× magnification and differential interference contrast (DIC) optics, and by the ability to evoke short and constant latency field excitatory postsynaptic potentials (fEPSPs) by VPM stimulation. Whole-cell voltage-clamp recordings were made from stellate cells (SC) in layer IV of the somatosensory barrel cortex using infrared illumination and differential interference contrast (DIC) optics. The composition of whole cell recording solution is shown as follows:
Whole cell recordings were made using a multiclamp 700A (Molecular devices, Sunnyvale, CA) digitized at 10 kHz and filtered at 2 kHz. […]

[2] = Os pump, injected into layer 4 of barrel cortex, 3 μM, 2 weeks, 8-week-old C57BL/6J mice
[3] = oral, 1 mg/kg, 8-week-old C57BL/6J mice

Row | Structure (SMILES) | Change in cell viability (293T cells; 0, 0.1, 1, 10, 100 μM, 293T) | Balance of excitation/inhibition (GABA/AMPA ratio) [1, 2] | Excitatory TC synaptic potency (TC potency) [1, 2] | Balance of excitation/inhibition (GABA/AMPA ratio) [1, 3] | TC synaptic potency in the sensory cortex [1, 3] | TC EPSC potency in the layer 4 barrel cortex ([1]; orally-applied, 3 μM) | Cell viability test results (CCK) 10 uM (293T cells; 10 uM, 24 hours co-incubation, 293T cell line, % of control) [%<] | Cell viability test results (CCK) 100 uM (293T cells; 100 uM, 24 hours co-incubation, 293T cell line, % of control) [%<] | Efficacy on TC synaptic potency compared among racemate and enantiomers [1, 3]
1 | CC1CCC(C(=O)O)CN1C(=O)Cc1ccc(F)cc1Cl (racemic) [BnH12001, 1-(2-(2-chloro-4-fluorophenyl)acetyl)-6-methylpiperidine-3-carboxylic acid] | no significant change in cell viability | maintained | significantly increased | maintaining the balance of excitation/inhibition | increase the TC synaptic potency | significantly augmented | – | – | –
2 | C[C@@H]1CC[C@H](C(=O)O)CN1C(=O)Cc1ccc(F)cc1Cl [BnH12001 enantiomer (3S,6R, 98%<), (3S,6R)-1-(2-(2-chloro-4-fluorophenyl)acetyl)-6-methylpiperidine-3-carboxylic acid] | – | – | – | maintaining the balance of excitation/inhibition | increase the TC synaptic potency | – | 99 | 95 | highest efficacy
